According to US20220235051A1, “DI-FLUORO AZEPANES AS HBV CAPSID ASSEMBLY MODULATORS” (priority 2019, published 2022):
Where two headings read alike, the source gives them in different places.

Test system: HBV
Assay: HBV replication inhibition assay (BDNA assay) in HepG2.2.15 cells
Type: cell-based
Details: Hepatitis B virus, HepG2.2.15, 144 h, read-out: HepG2.2.15 EC50 HBV DNA
Description: HBV replication inhibition by the disclosed compounds were determined in cells infected or transfected with HBV or cells with stably integrated HBV, such as HepG2.2.15 cells (Sells et al. 1987). In this example, HepG2.2.15 cells were maintained in cell culture medium containing 10% fetal bovine serum (FBS), Geneticin, L-glutamine, penicillin and streptomycin. HepG2.2.15 cells were seeded in 96-well plates at a density of 40,000 cells/well and were treated with serially diluted compounds at a final DMSO concentration of 0.5% either alone or in combination by adding drugs in a checker box format. Cells were incubated with compounds for three days, after which medium was removed and fresh medium containing compounds was added to cells and incubated for another three days. At day 6, supernatant was removed and treated with DNase at 37° C. for 60 minutes, followed by enzyme inactivation at 75° C. for 15 minutes. Encapsidated HBV DNA was released from the virions and covalently linked HBV polymerase by incubating in lysis buffer (Affymetrix QS0010) containing 2.5 μg proteinase K at 50° C. for 40 minutes. HBV DNA was denatured by addition of 0.2 M NaOH and detected using a branched DNA (BDNA) QuantiGene assay kit according to manufacturer recommendation (Affymetrix). HBV DNA levels were also quantified using qPCR, based on amplification of encapsidated HBV DNA extraction with QuickExtraction Solution (Epicentre Biotechnologies) and amplification of HBV DNA using HBV specific PCR probes that can hybridize to HBV DNA and a fluorescently labeled probe for quantitation. In addition, cell viability of HepG2.2.15 cells incubated with test compounds alone or in combination was determined by using CellTitre-Glo reagent according to the manufacturer protocol (Promega). The mean background signal from wells containing only culture medium was subtracted from all other samples, and percent inhibition at each compound concentration was calculated by normalizing to signals from HepG2.2.15 cells treated with 0.5% DMSO using equation E1.
% inhibition=(DMSOave−Xi)/DMSOave×100% E1
where DMSOave is the mean signal calculated from the wells that were treated with DMSO control (0% inhibition control) and Xi is the signal measured from the individual wells. EC50 values, effective concentrations that achieved 50% inhibitory effect, were determined by non-linear fitting using Graphpad Prism software (San Diego, Calif.) and equation E2.
Y=Ymin+(Ymax−Ymin)/(1+10(Log EC50−X)×HillSlope) E2
where Y represents percent inhibition values and X represents the logarithm of compound concentrations.
Selected disclosed compounds were assayed in the HBV replication assay (BDNA assay), as described above, and a representative group of these active compounds is shown in Table 3.

[1] = HepG2.2.15 cells, BDNA assay, encapsidated HBV DNA in supernatant at day 6

Structure (SMILES) | EC50 [1] [nM] | EC50 [nM]
C[C@@H]1Cc2nn3c(c2CN1C(=O)Nc1ccnc(C(F)F)c1F)C(F)(F)CC[C@@H](O)C3 [Example 70, (3R,8R)-N-(2-(Difluoromethyl)-3-fluoropyridin-4-yl)-11,11-difluoro-8-hydroxy-3-methyl-3,4,8,9,10,11-hexahydro-1H-pyrido[4′,3′:3,4]pyrazolo[1,5-a]azepine-2(7H)-carboxamide] | 31 | 
C[C@@H]1Cc2nn3c(c2CN1C(=O)Nc1ccc(F)c(C#N)c1)C(F)(F)C[C@@H](CO)CC3 (relative stereo) [Example 132] | 7 | 
C#CC1(O)CCC(F)(F)c2c3c(nn2C1)CCN(C(=O)Nc1ccnc(Br)c1F)C3 (single isomer, unassigned) [Example 63, (R*)-N-(2-Bromo-3-fluoropyridin-4-yl)-8-ethynyl-11,11-difluoro-8-hydroxy-3,4,8,9,10,11-hexahydro-1H-pyrido[4′,3′:3,4]pyrazolo[1,5-a]azepine-2(7H)-carboxamide] | 119 | 
C[C@@H]1Cc2nn3c(c2CN1C(=O)Nc1ccc(F)c(C#N)c1)C(F)(F)C[C@H](CO)CC3 [Example 131] | 3 | 
C=CC1(O)CCC(F)(F)c2c3c(nn2C1)CCN(C(=O)Nc1ccc(F)c(C#N)c1)C3 (single isomer, unassigned) [Example 56, (R*)-N-(3-Cyano-4-fluorophenyl)-11,11-difluoro-8-hydroxy-8-vinyl-3,4,8,9,10,11-hexahydro-1H-pyrido[4′,3′:3,4]pyrazolo[1,5-a]azepine-2(7H)-carboxamide] | 16 | 
C=C1CCC(F)(F)c2c3c(nn2C1)CCN(C(=O)Nc1ccc(F)c(C(F)(F)F)c1)C3 [Example 2, 11,11-Difluoro-N-(4-fluoro-3-(trifluoromethyl)phenyl)-8-methylene-3,4,8,9,10,11-hexahydro-1H-pyrido[4′,3′:3,4]pyrazolo[1,5-a]azepine-2(7H)-carboxamide] | 51 | 
N#Cc1cc(NC(=O)N2CCc3nn4c(c3C2)C(F)(F)CCC(O)(CF)C4)ccc1F (stereo not drawn) [Example 37, N-(3-Cyano-4-fluorophenyl)-11,11-difluoro-8-(fluoromethyl)-8-hydroxy-3,4,8,9,10,11-hexahydro-1H-pyrido[4′,3′:3,4]pyrazolo[1,5-a]azepine-2(7H)-carboxamide] | 15 | 
C[C@@H]1Cc2nn3c(c2CN1C(=O)Nc1ccnc(Br)c1F)C(F)(F)CC[C@@H](O)C3 [Example 68, (3R,8R)-N-(2-Bromo-3-fluoropyridin-4-yl)-11,11-di fluoro-8-hydroxy-3-methyl-3,4,8,9,10,11-hexahydro-1H-pyrido[4′,3′:3,4]pyrazolo[1,5-a]azepine-2(7H)-carboxamide] | 21 | 
N#Cc1cc(NC(=O)N2CCc3nn4c(c3C2)C(F)(F)CC[C@@H](O)C4)ccc1F [Example 8, (R)-N-(3-Cyano-4-fluorophenyl)-11,11-difluoro-8-hydroxy-3,4,8,9,10,11-hexahydro-1H-pyrido[4′,3′:3,4]pyrazolo[1,5-a]azepine-2(7H)-carboxamide] | 10 | 
C[C@@H]1Cc2nn3c(c2CN1C(=O)Nc1ccc(F)c(C#N)c1)C(F)(F)CC(O)CC3 (single isomer, unassigned) [Example 119, (3R,9S*)-N-(3-Cyano-4-fluorophenyl)-11,11-difluoro-9-hydroxyl-3-methyl-3,4,8,9,10,11-hexahydro-1H-pyrido[4′,3′:3,4]pyrazolo[1,5-a]azepine-2(7H)-carboxamide] | 1 | 
N#Cc1cc(NC(=O)N2CCc3nn4c(c3C2)C(F)(F)CCC(CNC(=O)C(F)(F)F)C4)ccc1F (stereo not drawn) [Example 51, N-(3-Cyano-4-fluorophenyl)-11,11-difluoro-8-((2,2,2-trifluoroacetamido)methyl)-3,4,8,9,10,11-hexahydro-1H-pyrido[4′,3′:3,4]pyrazolo[1,5-a]azepine-2(7H)-carboxamide] |  | 32
COC(=O)NCC1CCC(F)(F)c2c3c(nn2C1)CCN(C(=O)Nc1ccc(F)c(C#N)c1)C3 (stereo not drawn) [Example 53, Methyl ((2-((3-cyano-4-fluorophenyl)carbamoyl)-11,11-difluoro-2,3,4,7,8,9,10,11-octahydro-1H-pyrido[4′,3′:3,4]pyrazolo[1,5-a]azepin-8-yl)methyl)-carbamate] | 10 | 
